Where “and” joins values, the source holds several entries; their conditions need not be identical. Equal values may be shown once. No end group written: not given here.
How the values were obtained:
[1] = system: binding of rabbit Ig-HRP by solid phase Protein A; assay: Inhibition of binding of Ig-HRP to solid phase Protein A
Experimental: Protein A (recombinant Protein A from Repligen, Cambridge, Mass.) diluted to 1 μg/ml in coating buffer (0.1M NaHCO3, pH 9.0) was incubated in the wells of a microtiter plate (100 μl per well) for 2 hours at 37° C. Uncoated surfaces of the wells were blocked by adding 340 μl PBSC (9 mM Na2 HPO4, 1 mM NaH2 PO4, pH 7.2, 154 mM NaCl, 1 mg/ml casein or ovalbumin, and 0.01% thimerosal), incubating the plate 1 hour at 37° C., and then washing the wells 3 times with PBSCT (PBSC plus 0.1% Tween 20 (polyoxyethylene sorbitan monolaurate)). Dilutions of rabbit immunoglobulin labeled with horseradish peroxidase (Ig-HRP) (Zymed Laboratories, Inc., South San Francisco, Calif.) in PBS (9 mM Na2 HPO4, 1 mM NaH2 PO4, pH 7.2, 154 mM NaCl) were incubated in the wells (100 μl per well) for 2 hours at 37° C. followed by washing 3 times with PBS. OPD substrate buffer (0.8 mg/ml o-phenylenediamine, 0.1M Na2 HPO4, 0.05M sodium citrate, pH 5.5, plus 0.15% (v/v) H2 O2) was then added to the wells (100 μl/well), and the resultant colored product was measured with a Titertek Multiskan plate reader using a 414 nm filter.
OPD substrate buffer was then added (100 μl/well), and the resulting colored product was measured at 414 nm in a Titertek Multiskan plate reader.
8. […] Then the inhibition assay using solid phase Protein A was performed as described above.

[2] = system: pig aorta endothelial cells (PAECs), human serum; assay: Chromium release assay (PAEC assay); assay type: cell-based
Experimental: Culture plates (Falcon 24-well plates, Becton Dickinson, Lincoln Park, N.J.) were coated by addition of 0.5 ml/well of 2% gelatin (Type B, from bovine skin, Sigma Chemical Co.) diluted 1:10 in Hanks buffered salt solution (Gibco BRL, Grand Island, N.Y.), followed by incubation for 15 min at room temperature. The gelatin solution was removed, and 125×10^3 pig aorta endothelial cells (PAECs, Cell Systems, Kirkland, Wash.) in 2 ml of cell culture medium (CCM, Dulbecco's modified Eagle's medium (DMEM) with high glucose (Gibco BRL) containing 20% defined fetal bovine serum (FBS, HyClone Laboratories, Logan, Utah) that had been heat inactived for 30 min at 56° C., 1%(v/v) L-glutamine (200 mM, Gibco BRL) and penicillin G sodium (10,000 units/ml)/streptomycin sulfate (10,000 μg/ml in 0.85% saline, Gibco BRL)] were added per well. The plate was centrifuged in a model GS-6R Beckman table top centrifuge at 20×g for 2 min with the brake off to settle the cells onto the gelatin in a even monolayer, after which the plate was incubated at 37° C. in 5% CO2 -95% air. After 4 hours, cell attachment had occurred, and the CCM was removed and replaced with 2 ml of fresh CCM. In 2-4 days the PAECs had grown to 80-100% confluence and were used in the complement mediated chromium release assay.
The PAECs were washed 3 times with 1 ml of serum free medium (SFM), leaving the SFM on the cells for 5 min each time. Chromium radioisotope (^51 Cr, NaCrO4, Amersham Corp., Arlington Heights, Ill.) was diluted in SFM to give 40 μCi/ml, and 100 μl were added to each well of the PAEC culture plate. The plate was incubated for 2 hours at 37° C. in 5% CO2 -95% air. The wells were washed three times with 1 ml of SFM. Then, 1 ml of PBS was added to each well, and the plate was incubated at 37° C. for 30 min to help reduce ^51 Cr background.
The various peptide inhibitors (diluted in SFM) were added (300 μl/well) and incubated with the PAECs at 37° C. for 30 min. Undiluted human serum (HS, 100 μl) or 100 μl of heat inactivated human serum (HIHS) was added to each well, and the plate was incubated at 37° C. for 1 hour. Supernatant (200 μl) was removed from each well and added to 200 μl of scintillation cocktail (OptiPhase `Supermix`, Wallac Inc., Turku, Finland) previously added to each well of a 24-well polyethylene terephtalate reading plate (Wallac Inc.), and the plate was sealed with an acetate plate sealer (Dynatech Laboratories, Chantilly, Va.). The reading plate was placed on a shaker for 5 min to obtain a homogeneous mixture. Radioactivity (CPMs) of the wells was counted for 2 min using the 1450 MicroBeta PLUS plate reader (Wallac Inc.).
Total counts of ^51 Cr were determined from 200 μl aliquots taken from the wells to which 100 μl of 5% Triton X-100 (Sigma Chemical Co.) had been added. Total complement mediated lysis was determined from wells treated with HS alone, and background counts were determined from wells treated with HI-HS alone or with peptide alone (no HS). The average background was subtracted from all well counts, and the percent inhibition calculated as total lysis minus lysis with inhibitor/total lysis multiplied by 100. All experimental points were obtained in triplicate, and the data were analyzed in the same manner as the data from the SRBC assays.

[3] = system: sensitized sheep erythrocytes (SRBCs), human serum as complement; assay: Sheep red blood cell lysis assay (SRBC assay); assay type: cell-based
HRP enzyme = biological target: T1, HRP enzyme (Armoracia rusticana, UniProt P00433); assay: Control: effect of CBP2 on the HRP enzyme; assay type: biochemical, horseradish; conditions: 50 μM CBP2, 3 hours 37° C.
T1 construct: purchased Zymed Laboratories, Inc
Experimental: 1. […] Aliquots of 100 μl were placed in the wells of a microtiter plate and an equal volume of OPD substrate buffer was added, and the colored product was measured at 414 nm.

T1 sequence (P00433 31-338 limits assumed): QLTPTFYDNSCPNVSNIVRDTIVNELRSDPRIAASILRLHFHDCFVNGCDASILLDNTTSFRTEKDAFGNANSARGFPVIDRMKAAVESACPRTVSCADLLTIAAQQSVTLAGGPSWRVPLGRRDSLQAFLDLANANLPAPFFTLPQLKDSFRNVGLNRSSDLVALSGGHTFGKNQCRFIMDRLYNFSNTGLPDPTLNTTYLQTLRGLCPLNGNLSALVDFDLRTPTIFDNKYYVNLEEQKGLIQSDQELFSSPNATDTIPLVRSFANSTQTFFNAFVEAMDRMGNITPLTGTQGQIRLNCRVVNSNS
T1 sequence (P01870 whole entry partner): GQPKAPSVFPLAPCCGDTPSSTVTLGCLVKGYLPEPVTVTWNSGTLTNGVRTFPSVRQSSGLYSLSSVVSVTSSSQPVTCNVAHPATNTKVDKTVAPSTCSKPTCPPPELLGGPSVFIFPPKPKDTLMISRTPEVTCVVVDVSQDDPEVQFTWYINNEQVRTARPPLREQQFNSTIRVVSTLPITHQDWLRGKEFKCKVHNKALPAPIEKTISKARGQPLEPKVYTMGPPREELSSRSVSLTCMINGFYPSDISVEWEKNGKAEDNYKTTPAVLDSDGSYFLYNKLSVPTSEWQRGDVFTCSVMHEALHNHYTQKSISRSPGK
T1 sequence (P01840 whole entry partner): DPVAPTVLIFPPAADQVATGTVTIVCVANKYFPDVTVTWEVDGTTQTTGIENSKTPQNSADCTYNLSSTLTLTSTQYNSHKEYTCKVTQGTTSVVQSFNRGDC

Sequence: LEQGENVFLQATLLC [CBP2, C1q B chain residues 189-200 plus Leu Leu Cys at the carboxyl terminus]
- inhibition of Protein A binding of Ig-HRP (maximum) [1]: ~100%
- effect of DTT on the inhibitory activity of CBP2 ([1]; 4 mg/ml DTT, 2 hours 37° C., solid phase Protein A): no effect
- IC50 ([1]; Ig-HRP 1:5000 in PBS, preincubated 1 hour 37° C., read-out: concentration at 50% inhibition of Protein A binding of Ig-HRP): ~1000 nM
- % Inhibition PAEC Assay +/- S.D. ([2]; 31 μM): 2.0 +/- 3.1%
- % Inhibition PAEC Assay +/- S.D. ([2]; 62.5 μM): 10.6% and 10.6 +/- 13.5%
- % Inhibition PAEC Assay +/- S.D. ([2]; 125 μM): 25.0 +/- 14.8%
- % Inhibition PAEC Assay +/- S.D. ([2]; 250 μM): 64.4 +/- 8.4%
- % Inhibition PAEC Assay +/- S.D. ([2]; 500 μM): 87.2% and 87.2 +/- 3.8%
- % Inhibition SRBC Assay +/- S.D. ([3]; 31 μM): 0.0 +/- 0.0%
- % Inhibition SRBC Assay +/- S.D. ([3]; 62.5 μM): 13.5% and 13.5 +/- 9.3%
- % Inhibition SRBC Assay +/- S.D. ([3]; 125 μM): 45.2 +/- 30.8%
- % Inhibition SRBC Assay +/- S.D. ([3]; 250 μM): 78.0 +/- 18.3%
- % Inhibition SRBC Assay +/- S.D. ([3]; 1000 μM): 97.4 +/- 2.7%
- effect on the HRP enzyme (HRP enzyme): did not inhibit the HRP enzyme

Reference: patent US5932483A, “Synthetic peptide and its uses” (Northwestern University, priority 1996, dated 1999)
